Reference: patent US20240148821A1, “PHARMACEUTICAL USE OF CYCLIC PEPTIDE COMPOUND” (CHUGAI SEIYAKU KABUSHIKI KAISHA, priority 2021, published 2024)
Numbered stars: 1 amine (or outer) side, 2 acyl side, 3 side chain; on linkers, the order of the positions; unused ones are H or OH. Bridge positions count the residues as written; N and C are the ends. Square brackets hold non-standard residues; d marks the D form. Peptide text beside a SMILES is read from it. * marks the point of attachment. X45 = CN([C@@H](CC=C1CN(C(=O)OC(C)(C)C)C1)C(=O)[*:2])[*:1]; hPhe(3-Cl-4-CF3) = N[C@@H](CCc1ccc(C(F)(F)F)c(Cl)c1)C(=O)O; X46 = CN([C@@H](CCC1CN(C(=O)OC(C)(C)C)C1)C(=O)[*:2])[*:1]; X65 = O=C([C@H](CCCc1ccc(C(F)(F)F)cc1)N[*:1])[*:2]; X111 = CN([C@@H](CCC1CCOCC1)C(=O)[*:2])[*:1]; X41 = CN([C@@H](CC=C1CCOCC1)C(=O)[*:2])[*:1]; X119 = CN(C)C(=O)CCCN(CC(=O)[*:2])[*:1]; X74 = CC(C)(O)C=CCN(CC(=O)[*:2])[*:1]; X127 = COC/C=C/CN(CC(=O)[*:2])[*:1]; NMeCha = CN[C@@H](CC1CCCCC1)C(=O)O; NMeChg = CN[C@H](C(=O)O)C1CCCCC1; X43 = O=C(CN(CCCCCO)[*:1])[*:2]; NMeD = CN[C@@H](CC(=O)O)C(=O)O; NMeL = CN[C@@H](CC(C)C)C(=O)O; NMeA = CN[C@@H](C)C(=O)O; Piperidide = C1CCN(*)CC1; Ac5c = NC1(C(=O)O)CCCC1; Sar = CNCC(=O)O

molecular target: protein-protein interaction between Kras and SOS1 (biotin-tagged human Kras loaded with GDP, His-tagged human SOS1) (Homo sapiens (Human), UniProt P01116, G12D); assay: Protein-protein interaction inhibition between Kras and SOS1 (KrasG12D-SOS PPI) using AlphaScreen; type: biochemical; conditions: not given;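 note: kras produced in E. coli, Ni-coupled donor beads and streptavidin acceptor beads, excitation 680 nm with emission detected at 520–620 nm via singlet oxygen transfer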

Compound	IC50 [nM]
CC[C@H](C)[C@@H]1NC(=O)[C@H](CC(C)C)N(C)C(=O)C[C@@H](C(=O)N2CCCCC2)N(C)C(=O)[C@H](C2CCCCC2)N(C)C(=O)C2(CCCC2)NC(=O)CN(CCCC(=O)N(C)C)C(=O)[C@H](CCc2ccc(C(F)(F)F)c(Cl)c2)NC(=O)CN(C)C(=O)[C@H](CC2CCCCC2)N(C)C(=O)CN(C)C(=O)CN(C)C1=O [Compound 2052, 4-[(11S,17S,26S,29S,33S,36S)-11-[2-[3-chloro-4-(trifluoromethyl)phenyl]ethyl]-36-cyclohexyl-17-(cyclohexylmethyl)-29-isobutyl-15,18,21,24,30,34,37-heptamethyl-26-[(1S)-1-methylpropyl]-7,10,13,16,19,22,25,28,31,35,38-undecaoxo-33-(piperidine-1-carbonyl)-6,9,12,15,18,21,24,27,30,34,37-undecazaspiro[4.33]octatriacontan-9-yl]-N,N-dimethyl-butanamide] ([NMeL]I[Sar][Sar][NMeCha][Sar][hPhe(3-Cl-4-CF3)][X119][Ac5c][NMeChg][NMeD]-Piperidide; lactam N-11)	4.9

same assay, conditions: AlphaScreen; biotin-tagged human Kras loaded with GDP, His-tagged human SOS1; read-out: KRAS G12D-SOS PPI IC50

Compound	IC50 [nM]
CC[C@H](C)[C@@H]1NC(=O)[C@H](CC(C)C)N(C)C(=O)C[C@@H](C(=O)N2CCCCC2)N(C)C(=O)[C@H](C2CCCCC2)N(C)C(=O)C2(CCCC2)NC(=O)CN(CC=CC(C)(C)O)C(=O)[C@H](CCc2ccc(C(F)(F)F)c(Cl)c2)NC(=O)CN(C)C(=O)[C@H](CC2CCCCC2)N(C)C(=O)CN(C)C(=O)CN(C)C1=O [Compound 2047, (11S,17S,26S,29S,33S,36S)-11-[2-[3-chloro-4-(trifluoromethyl)phenyl]ethyl]-36-cyclohexyl-17-(cyclohexylmethyl)-9-(4-hydroxy-4-methyl-pent-2-enyl)-29-isobutyl-15,18,21,24,30,34,37-heptamethyl-26[(1S)-1-methylpropyl]-33-(piperidine-1-carbonyl)-6,9,12,15,18,21,24,27,30,34,37-undecazaspiro[4.33]octatriacontane-7,10,13,16,19,22,25,28,31,35,38-undecone] ([NMeL]I[Sar][Sar][NMeCha][Sar][hPhe(3-Cl-4-CF3)][X74][Ac5c][NMeChg][NMeD]-Piperidide; lactam N-11)	5.7
CC[C@H](C)[C@@H]1NC(=O)[C@H](CC(C)C)N(C)C(=O)C[C@@H](C(=O)N2CCCCC2)N(C)C(=O)[C@H](C2CCCCC2)N(C)C(=O)C2(CCCC2)NC(=O)[C@H](CCC2CCOCC2)N(C)C(=O)[C@H](CCc2ccc(C(F)(F)F)c(Cl)c2)NC(=O)CN(C)C(=O)[C@H](CC2CCCCC2)N(C)C(=O)CN(C)C(=O)CN(C)C1=O [Compound 2048, (8S,11S,17S,26S,29S,33S,36S)-11-[2-[3-chloro-4-(trifluoromethyl)phenyl]ethyl]-36-cyclohexyl-17-(cyclohexylmethyl)-29-isobutyl-9,15,18,21,24,30,34,37-octamethyl-26-[(1S)-1-methylpropyl]-33-(piperidine-1-carbonyl)-8-(2-tetrahydropyran-4-ylethyl)-6,9,12,15,18,21,24,27,30,34,37-undecazaspiro[4.33]octatriacontane-7,10,13,16,19,22,25,28,31,35,38-undecone] ([NMeL]I[Sar][Sar][NMeCha][Sar][hPhe(3-Cl-4-CF3)][X111][Ac5c][NMeChg][NMeD]-Piperidide; lactam N-11)	3.5
CC[C@H](C)[C@@H]1NC(=O)[C@H](CC(C)C)N(C)C(=O)C[C@@H](C(=O)N2CCCCC2)N(C)C(=O)[C@H](C2CCCCC2)N(C)C(=O)C2(CCCC2)NC(=O)CN(CCCCCO)C(=O)[C@H](CCc2ccc(C(F)(F)F)c(Cl)c2)NC(=O)CN(C)C(=O)[C@H](CC2CCCCC2)N(C)C(=O)CN(C)C(=O)CN(C)C1=O [Compound 2049, (11S,17S,26S,29S,33S,36S)-11-[2-[3-chloro-4-(trifluoromethyl)phenyl]ethyl]-36-cyclohexyl-17-(cyclohexylmethyl)-9-(5-hydroxypentyl)-29-isobutyl-15,18,21,24,30,34,37-heptamethyl-26-[(1S)-1-methylpropyl]-33-(piperidine-1-carbonyl)-6,9,12,15,18,21,24,27,30,34,37-undecazaspiro[4.33]octatriacontane-7,10,13,16,19,22,25,28,31,35,38-undecone] ([NMeL]I[Sar][Sar][NMeCha][Sar][hPhe(3-Cl-4-CF3)][X43][Ac5c][NMeChg][NMeD]-Piperidide; lactam N-11)	4
CC[C@H](C)[C@@H]1NC(=O)[C@H](CC(C)C)N(C)C(=O)C[C@@H](C(=O)N2CCCCC2)N(C)C(=O)[C@H](C2CCCCC2)N(C)C(=O)C2(CCCC2)NC(=O)[C@H](CC=C2CN(C(=O)OC(C)(C)C)C2)N(C)C(=O)[C@H](CCc2ccc(C(F)(F)F)c(Cl)c2)NC(=O)CN(C)C(=O)[C@H](CC2CCCCC2)N(C)C(=O)CN(C)C(=O)CN(C)C1=O [Compound 2050, tert-butyl 3-[2-[(8S,11S,17S,26S,29S,33S,36S)-11-[2-[3-chloro-4-(trifluoromethyl)phenyl]ethyl]-36-cyclohexyl-17-(cyclohexylmethyl)-29-isobutyl-9,15,18,21,24,30,34,37-octamethyl-26-[(1S)-1-methylpropyl]-7,10,13,16,19,22,25,28,31,35,38-undecaoxo-33-(piperidine-1-carbonyl)-6,9,12,15,18,21,24,27,30,34,37-undecazaspiro[4.33]octatriacontan-8-yl]ethylidene]azetidine-1-carboxylate] ([NMeL]I[Sar][Sar][NMeCha][Sar][hPhe(3-Cl-4-CF3)][X45][Ac5c][NMeChg][NMeD]-Piperidide; lactam N-11)	51
CC[C@H](C)[C@@H]1NC(=O)[C@H](CC(C)C)N(C)C(=O)C[C@@H](C(=O)N2CCCCC2)N(C)C(=O)[C@H](C2CCCCC2)N(C)C(=O)C2(CCCC2)NC(=O)CN(C/C=C/COC)C(=O)[C@H](CCc2ccc(C(F)(F)F)c(Cl)c2)NC(=O)CN(C)C(=O)[C@H](CC2CCCCC2)N(C)C(=O)CN(C)C(=O)CN(C)C1=O [Compound 2051, (11S,17S,26S,29S,33S,36S)-11-[2-[3-chloro-4-(trifluoromethyl)phenyl]ethyl]-36-cyclohexyl-17-(cyclohexylmethyl)-29-isobutyl-9-[(E)-4-methoxybut-2-enyl]-15,18,21,24,30,34,37-heptamethyl-26-[(1S)-1-methylpropyl]-33-(piperidine-1-carbonyl)-6,9,12,15,18,21,24,27,30,34,37-undecazaspiro[4.33]octatriacontane-7,10,13,16,19,22,25,28,31,35,38-undecone] ([NMeL]I[Sar][Sar][NMeCha][Sar][hPhe(3-Cl-4-CF3)][X127][Ac5c][NMeChg][NMeD]-Piperidide; lactam N-11)	2.5
CC[C@H](C)[C@@H]1NC(=O)[C@H](CC(C)C)N(C)C(=O)C[C@@H](C(=O)N2CCCCC2)N(C)C(=O)[C@H](C2CCCCC2)N(C)C(=O)C2(CCCC2)NC(=O)[C@H](CC=C2CCOCC2)N(C)C(=O)[C@H](CCc2ccc(C(F)(F)F)c(Cl)c2)NC(=O)CN(C)C(=O)[C@H](CC2CCCCC2)N(C)C(=O)CN(C)C(=O)CN(C)C1=O [Compound 2053, (8S,11S,17S,26S,29S,33S,36S)-11-[2-[3-chloro-4-(trifluoromethyl)phenyl]ethyl]-36-cyclohexyl-17-(cyclohexylmethyl)-29-isobutyl-9,15,18,21,24,30,34,37-octamethyl-26-[(1S)-1-methylpropyl]-33-(piperidine-1-carbonyl)-8-(2-tetrahydropyran-4-ylideneethyl)-6,9,12,15,18,21,24,27,30,34,37-undecazaspiro[4.33]octatriacontane-7,10,13,16,19,22,25,28,31,35,38-undecone] ([NMeL]I[Sar][Sar][NMeCha][Sar][hPhe(3-Cl-4-CF3)][X41][Ac5c][NMeChg][NMeD]-Piperidide; lactam N-11)	10
CC[C@H](C)[C@@H]1NC(=O)[C@H](C)N(C)C(=O)C[C@@H](C(=O)N2CCCCC2)N(C)C(=O)[C@H](C2CCCCC2)N(C)C(=O)C2(CCCC2)NC(=O)[C@@H]2CCCN2C(=O)[C@H](CCCc2ccc(C(F)(F)F)cc2)NC(=O)CN(C)C(=O)[C@H](CC2CCCCC2)N(C)C(=O)CN(C)C(=O)CN(C)C1=O [Compound 2055, (3S,9S,18S,21S,25S,28S,34S)-28-cyclohexyl-9-(cyclohexylmethyl)-7,10,13,16,21,22,26,29-octamethyl-18-[(1S)-1-methylpropyl]-25-(piperidine-1-carbonyl)-3-[3-[4-(trifluoromethyl)phenyl]propyl]spiro[1,4,7,10,13,16,19,22,26,29,32-undecazabicyclo[32.3.0]heptatriacontane-31,1′-cyclopentane]-2,5,8,11,14,17,20,23,27,30,33-undecone] ([NMeA]I[Sar][Sar][NMeCha][Sar][X65]P[Ac5c][NMeChg][NMeD]-Piperidide; lactam N-11)	27
CC[C@H](C)[C@@H]1NC(=O)[C@H](CC(C)C)N(C)C(=O)C[C@@H](C(=O)N2CCCCC2)N(C)C(=O)[C@H](C2CCCCC2)N(C)C(=O)C2(CCCC2)NC(=O)[C@H](CCC2CN(C(=O)OC(C)(C)C)C2)N(C)C(=O)[C@H](CCc2ccc(C(F)(F)F)c(Cl)c2)NC(=O)CN(C)C(=O)[C@H](CC2CCCCC2)N(C)C(=O)CN(C)C(=O)CN(C)C1=O [Compound 2056, tert-butyl 3-[2-[(8S,11S,17S,26S,29S,33S,36S)-11-[2-[3-chloro-4-(trifluoromethyl)phenyl]ethyl]-36-cyclohexyl-17-(cyclohexylmethyl)-29-isobutyl-9,15,18,21,24,30,34,37-octamethyl-26-[(1S)-1-methylpropyl]-7,10,13,16,19,22,25,28,31,35,38-undecaoxo-33-(piperidine-1-carbonyl)-6,9,12,15,18,21,24,27,30,34,37-undecazaspiro[4.3 3]octatriacontan-8-yl]ethyl]azetidine-1-carboxylate] ([NMeL]I[Sar][Sar][NMeCha][Sar][hPhe(3-Cl-4-CF3)][X46][Ac5c][NMeChg][NMeD]-Piperidide; lactam N-11)	13
